Measurements taken from patent US11174462B2, “Microfluidic model of the blood brain barrier” (EMULATE, Inc., priority 2015, dated 2021).
“Also recorded” adds a separate entry of the source.

Legend:
neurons seeded in chip = assay type: cell-based, human
[1] = test system: cell monolayers with tight junctions; settings: passive paracellular diffusion only; cited from earlier work
iBMEC barrier = test: TEER measurement of iBMEC barrier function on TEER chips under flow; assay type: cell-based, human; settings: exposure of chips under flow to TNFa, FIG. 14A
Description: Cells were plated on tall channel PDMS chips equipped with incorporated gold electrodes on each channel (see FIG. 13A). Post seeding of BMECs, transendothelial electrical resistance was measured by connecting the electrodes to an EVOM2 voltohmmeter (see FIG. 13B). […] The “damaged” chip was a failure due to the TEER-Chips being a prototype.
Higher TEER values generally indicate a tighter barrier, which is typically desirable for a blood-brain barrier.

[2] = test system: BMECs seeded on a microfluidic device; test: Paracellular permeability assay with Dextran-FITC on chip; assay type: cell-based, human; settings: TNFa exposure, FIG. 14B
Description: Albumin or Dextran conjugated to a fluorescent probe (e.g., FITC or TRITC) are frequently used to monitor changes in leakage, and thus barrier function. In this case, Dextran-FITC, a green fluorescent molecule of 4 KDa, or sodium fluorescein (a 0.3 KDa molecule), was added to the bottom (“blood side”) channel. Paracellular permeability was calculated by measuring the permeability of the fluorescent molecule on the Top (“brain side”) channel. […] FIG. 14B involves TNF-alpha exposure, but the readout is membrane permeability as measured by Dextran-FITC.

In the case of `NC1=N[C@H](O)[C@H]2[C@H]3O[C@]4(O)O[C@@H]([C@@H](O)[C@@]2(N1)[C@@H]4O)[C@]3(O)CO` [TTX, tetrodotoxin], the “effect on neuronal calcium flux activity” value (neurons seeded in chip) is reported as “ablates this activity”.
For Lucifer Yellow, the “permeability across cell monolayers (in words)” value [1] is listed as “low permeability”.
For TNFa, the “effect on iBMEC barrier function (TEER)” value (iBMEC barrier) was “weakening of barrier function; also recorded: decrease in barrier function and TEER” and the “effect on permeability to dextran-FITC through the semi-porous membrane” value [2] was “increase in permeability”.
